What all share (type): biochemical
One assay concerns the target T1, Pim-2 (Homo sapiens, UniProt Q9P1W9).
T1 construct: His6-labelled recombinant full-length human Pim-1, Pim-2 or Pim-3 protein; His6; made in house
The experiment in a line: TR-FRET assay, Pim-2 kinase (phosphorylation of Bad Ser112). Conditions: TR-FRET; ATP 40 μM; read-out: IC50 Pim2. As to the method:
(§1) In order to determine the inhibition of activation of Pim kinases, the compounds of the invention are tested in accordance with a routinely used in vitro TR-FRET assay (Time-Resolved Fluorescence Resonance Energy Transfer). […] For the assay, the following reagents are used:
(§2) Pim kinase—His6-labelled recombinant full-length human Pim-1, Pim-2 or Pim-3 protein (prepared according to J. Mol. Biol. (2005) 348, 183-193); Bad—His6-labelled recombinant full-length human Bad protein (prepared according to J. Mol. Biol. (2005) 348, 183-193); α-His6-APC—murine monoclonal antibody conjugated to allophycocyanin SureLight™ directed against the His6 label (Perkin-Elmer, No. AD0059H, Waltham, Mass., United States); • β-P˜Bad-Eu—murine monoclonal antibody (Cell Signaling Technology #9296B, Danvers, Mass., United States) directed against phosphoBad (Ser112) (7E11) custom-labelled by Perkin-Elmer with the reagent LANCE™ Eu-W1024.
(§3) The assay is based on Perkin-Elmer's LANCE™ technology: the Eu-labelled antibody binds to phospho-Ser112 and generates a TR-FRET signal by interaction with the APC-labelled antibody directed against His6, bound to the His6 label of Bad. The TR-FRET signal is detected using a SpectraMax M5 plate reader (Molecular Devices) with the following settings: λex=340 nm, λem1=615 nm, λem2=665 nm. The ratio of the fluorescence signal at 665 nm to the fluorescence signal at 615 nm is used as the signal reading for the IC50 (calculation is based on the 4-parameter logistic model). The assay is performed in a 384-well format; the liquid manipulations are performed using a Beckman 3000 liquid manipulations station. The test compounds are tested at 10 concentration points in duplicate; the highest compound concentration is typically equal to 30 μM. The ATP concentration is equal to 40 μM, which is equivalent to the apparent KM value.
On the technique in general: In TR-FRET formats the signal depends on donor and acceptor labels being close together.

Another assay deals with T2, Pim-3 (Homo sapiens, UniProt Q86V86).
T2 construct: His6-labelled recombinant full-length human Pim-1, Pim-2 or Pim-3 protein; His6; made in house
The experiment in a line: TR-FRET assay, Pim-3 kinase (phosphorylation of Bad Ser112). Conditions: TR-FRET; ATP 40 μM; read-out: IC50 Pim3. As to the method:
as §1, §2, §3

In a further assay the target is T3, Pim-1 (Homo sapiens, UniProt P11309).
T3 construct: His6-labelled recombinant full-length human Pim-1, Pim-2 or Pim-3 protein; His6; made in house
Nature of the assay: TR-FRET assay, Pim-1 kinase (phosphorylation of Bad Ser112). Conditions: TR-FRET; ATP 40 μM; read-out: IC50 Pim1. As to the method:
as §1, §2, §3

SMILES strings stand for the structures. Some results are limits rather than exact numbers.

Drawing on patent US20110178053A1, “AZACARBOLINE DERIVATIVES, PREPARATION METHOD THEREOF AND THERAPEUTIC USE OF SAME” (SANOFI-AVENTIS, priority 2008, published 2011), this text covers IC50 for 13 compounds.

T1 sequence (Q9P1W9 whole entry): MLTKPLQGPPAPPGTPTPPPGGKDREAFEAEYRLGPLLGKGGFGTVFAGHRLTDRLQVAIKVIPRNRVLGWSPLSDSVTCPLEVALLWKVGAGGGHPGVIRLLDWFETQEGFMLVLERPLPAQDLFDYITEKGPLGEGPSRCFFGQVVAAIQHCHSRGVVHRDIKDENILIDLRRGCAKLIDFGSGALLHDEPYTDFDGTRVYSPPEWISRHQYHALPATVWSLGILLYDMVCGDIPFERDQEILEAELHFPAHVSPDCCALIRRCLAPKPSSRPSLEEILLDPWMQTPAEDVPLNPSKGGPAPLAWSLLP
T3 sequence (P11309 whole entry): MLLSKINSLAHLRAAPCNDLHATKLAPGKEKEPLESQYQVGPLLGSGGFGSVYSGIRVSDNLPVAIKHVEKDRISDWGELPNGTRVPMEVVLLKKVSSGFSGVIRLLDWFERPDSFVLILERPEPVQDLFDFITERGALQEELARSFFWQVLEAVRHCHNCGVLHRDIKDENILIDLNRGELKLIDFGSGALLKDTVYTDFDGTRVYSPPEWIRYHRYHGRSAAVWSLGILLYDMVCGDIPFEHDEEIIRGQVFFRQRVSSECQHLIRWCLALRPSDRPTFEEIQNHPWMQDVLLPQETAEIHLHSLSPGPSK

The term IC50 denotes the concentration that gives 50% inhibition. For `CCOc1ncccc1-c1c(F)cnc2[nH]c3cnc(-c4cccnc4)cc3c12` [Example 64, 4-(2-ethoxypyrid-3-yl)-3-fluoro-6-(pyrid-3-yl)-9H-pyrrolo[2,3-b:5,4-c′]dipyridine], the half-maximal inhibitory concentration (IC50) is over 5000 nM on Pim-2, 1000 to 5000 nM at Pim-3 and 100 to 1000 nM on Pim-1.
On the same counts, the results for `CN1CCCN(c2c(F)cnc3[nH]c4cnc(-c5cccnc5)cc4c23)CC1` [Example 80, 3-fluoro-4-(4-methyl-1,4-diazepan-1-yl)-6-(pyrid-3-yl)-9H-pyrrolo[2,3-b:5,4-c′]dipyridine] are over 5000 nM, 100 to 1000 nM and 100 to 1000 nM.
On the same counts, the results for `CS(=O)(=O)Nc1ccccc1-c1c(F)cnc2[nH]c3cnc(-c4cccnc4)cc3c12` [Example 70, N-{2-[3-fluoro-6-(pyrid-3-yl)-9H-pyrrolo[2,3-b:5,4-c′]-dipyrid-4-yl]phenyl}-methanesulfonamide] are over 5000 nM, over 5000 nM and 1000 to 5000 nM.
On to `Fc1cnc2[nH]c3cnc(-c4cccnc4)cc3c2c1N1CCC(N2CCCCC2)CC1` [Example 83, 4-(1.4′-bipiperid-1′-yl)-3-fluoro-6-(pyrid-3-yl)-9H-pyrrolo[2,3-b:5,4-c′]-dipyridine], for which the 50% inhibitory concentration (IC50) at Pim-2 is over 5000 nM; at Pim-3 it was 100 to 1000 nM; on Pim-1 it was 100 to 1000 nM.
On to `Fc1cc(F)cc(-c2c(F)cnc3[nH]c4cnc(-c5cccnc5)cc4c23)c1` [Example 25, 4-(3,5-difluorophenyl)-3-fluoro-6-(pyrid-3-yl)-9H-pyrrolo [2,3-b:5,4-c′]-dipyridine], for which the half-inhibitory concentration (IC50) at Pim-2 is over 5000 nM; on Pim-3, 100 to 1000 nM; at Pim-1 it was 1 to 100 nM.
On the same counts, the results for `COc1cnc2[nH]c3cnc(-c4cnn(CCCCCN)c4)cc3c2c1` [Example 168, 5-[4-(3-methoxy-9H-pyrrolo[2,3-b:5,4-c′]dipyrid-6-yl)-1H-pyrazol-1-yl]pentan-1-amine] are over 5000 nM, 100 to 1000 nM and 100 to 1000 nM.
On the same counts, the results for `CN1CCN(C2CCN(c3c(F)cnc4[nH]c5cnc(-c6cccnc6)cc5c34)CC2)CC1` [Example 82, 3-fluoro-4-[4-(4-methylpiperazin-1-yl)piperid-1-yl]-6-(pyrid-3-yl)-9H-pyrrolo-[2,3-b:5,4-c′]-dipyridine] are 1000 to 5000 nM, 100 to 1000 nM and 1 to 100 nM.
The like results for `CN(C)c1cccc(-c2c(F)cnc3[nH]c4cnc(-c5cccnc5)cc4c23)c1` [Example 58, 3-[3-fluoro-6-(pyrid-3-yl)-9H-pyrrolo[2,3-b:5,4-c′]dipyrid-4-yl]-N,N-dimethylaniline] were, in that order, over 5000 nM, 1000 to 5000 nM and 1000 to 5000 nM.
Regarding `O=C(O)CCC(=O)Nc1cccc(-c2c(F)cnc3[nH]c4cnc(-c5cccnc5)cc4c23)c1` [Example 65, acide 4-({3-[3-fluoro-6-(pyrid-3-yl)-9H-pyrrolo[2,3-b:5,4-c′]-dipyrid-4-yl]-phenyl}amino)-4-oxobutanoic acid], the half-inhibitory concentration (IC50) is over 5000 nM on Pim-2, 1000 to 5000 nM on Pim-3 and 100 to 1000 nM at Pim-1.
On the same counts, the results for `CC(=O)N1CCN(c2ccc(-c3cnc4[nH]c5cnc(-c6cccnc6)cc5c4c3)cc2)CC1` [Example 137, 1-(4-{4-[6-(pyrid-3-yl)-9H-pyrrolo[2,3-b:5,4-c′]dipyrid-3-yl]phenyl}piperazin-1-yl)-ethanone] are 100 to 1000 nM, 1 to 100 nM and 1 to 100 nM.
On the same counts, the results for `COc1ncc(-c2c(F)cnc3[nH]c4cnc(-c5cccnc5)cc4c23)cn1` [Example 73, 3-fluoro-4-(2-methoxypyrimidin-5-yl)-6-(pyrid-3-yl)-9H-pyrrolo[2;3-b:5,4-c′]dipyridine] are over 5000 nM, 1000 to 5000 nM and 100 to 1000 nM.
The like results for `CC(C)Cn1cc(-c2cnc3[nH]c4cnc(-c5cccnc5)cc4c3c2)cn1` [Example 117, 3-[1-(2-methyl-propyl)-1H-pyrazol-4-yl]-6-(pyrid-3-yl)-9H-pyrrolo[2,3-b:5,4-c′]dipyridine] were, in that order, 1000 to 5000 nM, 1 to 100 nM and 1 to 100 nM.
Regarding `Cn1cc(-c2c(F)cnc3[nH]c4cnc(-c5cccnc5)cc4c23)cn1` [Example 60, 3-fluoro-4-(1-methyl-1H-pyrazol-4-yl)-6-(pyrid-3-yl)-9H-pyrrolo[2,3-b:5,4-c′]-dipyridine], the IC50 at Pim-2 fell in the range of 1000 to 5000 nM; at Pim-3, 100 to 1000 nM; at Pim-1 it was 1 to 100 nM.
